Source: patent publication US9181263B2, “Inhibitors of bruton's tyrosine kinase” (PHARMACYCLICS, INC., priority 2007, dated 2015)

Key:
[1] = Glutathione binding assay; type: physicochemical; details: 5 mM glutathione, 10 μM inhibitor, potassium phosphate buffer, room temperature, HPLC
Procedure: A calculated value (e.g (1/Btk IC50)/Glutathione conjugation rate) as shown in the Table 2) is used to compare compounds for their ratio between potency at inhibiting their target and their non-specific binding to other SH groups, such as those in glutathione. […] Calculated ratios such as these are used to quantitatively compare different compounds and select compounds for further study.
For the glutathione binding assays, 5 mM glutathione, 10 μM Btk inhibitor in DMSO (10 μL) and 6 equivalents of N′N′ Diisopropyl ethyl amine were combined in 1 mL potassium phosphate buffer. The mixture was incubated for 0, 15, 60 minutes at room temperature and the reaction was stopped with 10 equivalents of formic acid. 50 μL of each reaction mixture was injected on HPLC (Mobil Phase A: 0.2% formic acid in water, Mobile Phase B: 0.2% formic acid in acetonitrile, HPLC Column: Metasil Basic 3μ, 150×4.6 mm, 10% B, Gradient: 10% to 90% B, Detection: UV/Vis […]). Rate of reaction was reported as nmole GSH conjugate conversion per minute from the normalized ratio for area under the curve from HPLC chromatograms for both GSH conjugate and the parent.

lymphoma cell line DOHH2 = assay: DOHH2 cell proliferation assay (Alamar Blue); type: cell-based; details: Homo sapiens, DOHH-2, 72 hours
Procedure: After 72 hours, cell number was measured using Alamar Blue using manufacturer's protocol. A dilution series of untreated cells was run in parallel to verify that the Alamar Blue assay reliably reflected cell number and that growth conditions were not limiting. […] GI50 values were confirmed in two or more separate experiments for each cell line.
Analogs are generated that are Btk inhibitors and that are cytotoxic to the lymphoma cell line DOHH2. For the DOHH2 cell proliferation assay, cells were seeded in 96-well plates in standard growth media (RPMI+10% fetal calf serum) and compounds were added in a 9-point dilution series ranging from 10 uM to 0.04 uM with DMSO at 0.1% final concentration in all wells. After 72 hours, cell number was measured using Alamar Blue using manufacturer's protocol. A dilution series of untreated cells was run in parallel to verify that the Alamar Blue assay reliably reflected cell number and that growth conditions were not limiting.

CN(C)C/C=C/C(=O)N1CCC[C@@H]1Cn1nc(-c2ccc(Oc3ccccc3)cc2)c2c(N)ncnc21 [Compound 11, (E)-1-((R)-2-((4-amino-3-(4-phenoxyphenyl)-1H-pyrazolo[3,4-d]pyrimidin-1-yl)methyl)pyrolidin-1-yl)-4-(dimethylamino)but-2-en-1-one]
Glutathione Conj Rate [1]: 0.004525 nmol/min | GI50 (lymphoma cell line DOHH2): > 10 µM
